Results: patent US20040110681A1, “Method to identify targeting molecules” (priority 2002, published 2004)
Several values for one entry are separate records, joined by “and”; a condition that tells them apart may be missing. Equal entries are not always repeated.

Tests used:
brain [1] = assay: Head to head comparison of CAGAXCY variants (L5, N5, M5) vs control lacZ phage; assay type: in vivo; details: 6 hours after administration vs 2 hours
brain [2] = assay: Co-injection of A3 and control T7-LacZ phage, plaque assay of tissues and blood; assay type: in vivo, BALB/c mice; details: 10^9 pfu of each phage, tail vein, 1 hour circulation
Description: Plaque assays were used to determine the relative amounts of phage contained in blood and brain. For the blood assays, 300 μl of blood was drawn into 300 μl of 100 mM sodium citrate before perfusion. Plasma was recovered and saved for plaque assay. The phage content was assessed by mixing aliquots of the tissue homogenate or plasma with the bacterial BLT-5615 host, then plating on agar plates.
40 μl of 40 mg/ml of X-gal in DMF was added into 3 ml of top agar in each plate.
A mixture of the two phage (10^9 pfu of each phage) was injected into the tail veins of non-anesthetized BALB/c mice. […] Another measure of selective retention is to compare target organ to blood levels of the test phage.

brain [3] = assay: CX4CY phage library, one round of in vivo panning to brain; design: species or system BALB/c mice; details: 4 hrs post phage injection
Description: A CX4CY library was prepared and tested. 1×10^10 pfu of the library phage were injected into 6 BALB/c mice (3 mice/time point). At 30 min and 4 hr post-injection, brain was harvested and processed as described above. Similar numbers of plaques were picked individually, and the insert sequence amplified by PCR and sequenced. Alignment analysis of the sequence data was performed with a version of Clustral/W.

[4] = system: brain, lung, liver, kidney, colon; assay: Effect of dose on the brain-targeting properties of T7-CAGALCY (SI, SPI); assay type: in vivo, FVB female mice; details: for Organ Specificity Index (SPI), ratio of SI brain to colon / Organ Specificity Index (SPI), ratio of SI brain to kidney / Organ Specificity Index (SPI), ratio of SI brain to liver / Organ Specificity Index (SPI), ratio of SI brain to lung / Selectivity index (SI), brain / Selectivity index (SI), colon / Selectivity index (SI), kidney / Selectivity index (SI), liver / Selectivity index (SI), lung: 4 hours; for Organ Specificity Index (SPI), ratio of SI brain to colon / Organ Specificity Index (SPI), ratio of SI brain to kidney / Organ Specificity Index (SPI), ratio of SI brain to liver / Organ Specificity Index (SPI), ratio of SI brain to lung: mean; for Selectivity index (SI), brain / Selectivity index (SI), colon / Selectivity index (SI), kidney / Selectivity index (SI), liver / Selectivity index (SI), lung: mean ± SEM
Description: In the dose response study, in paragraph B below, three mice were used per dose, co-injected with 1×10^7, 1×10^8, 1×10^9, 1×10^10, 1×10^11 pfu of each phage.
For each dose, three mice were injected. Four hours after phage administration, phage were recovered from the brain, lung, liver, kidney, colon, and blood.
This was measured as A3-T7 phage yield per gram tissue from various organs normalized by the yield/g tissue of the control phage.

[5] = system: brain, lung, liver, kidney, blood and spleen; assay: Pharmacokinetic (PK) analysis of T7-CAGALCY and T7-lacZ phage, plaque assay; assay type: in vivo, FVB female mice
Description: A3-T7 was amplified in the host strain BLT-5615 in the presence of 1 mM IPTG and purified. T7-lacZ phage were amplified by large scale plating on LB plates. The plates were incubated at 25° C. overnight, and phage were eluted with phage extraction buffer (20 mM Tris-HCl, pH 8.0, 100 mM NaCl, 6 mM MgSO4) overnight at 4° C. with gentle rocking. The extracted phage were pooled and purified. In the PK study, in paragraph A below, three mice were used per time point, co-injected with 1×10^10 pfu of each phage. Time points were 2 min, 10 min, 30 min, 1 hr, 2 hr, 4 hr, 6 hr, 12 hr, and 24 hr.
Mice were anesthetized with Avertin 2-4 minutes before the scheduled harvest time (the mice assigned to the 2 minute time-point were anesthetized prior to administration of the phage). The brain, lung, liver, kidney, blood and spleen were harvested at 2 min, 10 min, 30 min, 1 hr, 2 hr, 4 hr, 6 hr, 12 hr, and 24 hr. The phage contents in each organ were determined by plaque assay in the presence of X-gal in top agar.

brain [6] = assay: kSAR: co-injection of all 20 CAGAXCY (position 5) phage variants, sequence frequency in brain; assay type: in vivo, BALB/c mice
Description: To determine the optimum amino acid for position 5, all 20 variants at this position were injected. For co-injection of all 20 variants of CAGAXCY phage, individual phage were grown up and titered. Equivalent amounts of each phage type were added to PBS and 200 μL dose of the mixture was injected into 3 BALB/c mice per group (two time points of 30 minutes and 4 hours were studied, total of 6 mice). At 30 min and 4 hrs post injection, the mice were anesthetized, perfused and blood and brain were harvested. Aliquots of both the initial phage pool used for dosing as well as brain tissue samples were plated out, and approximately 100 individual plaques from each set were amplified by PCR using the T7 Super up primer method and sequenced using a CEQ 2000XL sequencer (Beckman Coulter, Calif.).
A total of 107 individual phage from the initial mixture used for dosing were sequenced to verify the relative abundance of the individual phage within the administered dose and these were compared with the relative frequency of the different phage recovered from brain after 30 minutes or 4 hours of circulation. There was a marked and rapid shift in frequency even by 30 minutes, where there was a marked enrichment of phage expressing N at the X5 position, (from 7% in the initial pool to 49%), M (from 5% to 24%) or L (2.8% to 12%) at 30 minutes.

brain tissue = assay: Individual peptide variants of A3 on phage, brain selectivity index vs T7-lacZ; assay type: in vivo, FVB or BALB/c mice; details: 2 hours circulation
Description: In this example, various individual peptide variants of A3 were tested in vivo for their ability to target brain or other tissues. […] The phage contents of each organ were determined by plaque assay in the presence of X-gal (500 μg/mL) in top agar.
Thus, selectively indices of less than 10 are considered low, those between 10 and […] are considered moderate and those over 100 are considered high.

CAGALCY [T7-A3] was tested, and the “change of brain SI values” (brain [1]) was “increase further”, the “brain to blood ratio after normalization to control phage” value (brain [2]) was greater than 100 fold and the “enrichment among 83 sequences sampled from the brain” value (brain [3]) was “no enriched phage”. For the same substance, the “Organ Specificity Index (SPI), ratio of SI brain to colon” value ([4]; 1 × 10^7 pfu) was 4.57, the “Organ Specificity Index (SPI), ratio of SI brain to kidney” value ([4]; 1 × 10^7 pfu) was 1.92 and the “Organ Specificity Index (SPI), ratio of SI brain to liver” value ([4]; 1 × 10^7 pfu) was 2.34. The “Organ Specificity Index (SPI), ratio of SI brain to lung” value ([4]; 1 × 10^7 pfu) was 4.23, the “Selectivity index (SI), brain” value ([4]; 1 × 10^7 pfu) was 13.2 and the “Selectivity index (SI), colon” value ([4]; 1 × 10^7 pfu) was 1.8 ± 1.1. The “Selectivity index (SI), kidney” value ([4]; 1 × 10^7 pfu) was 5.0 ± 3.1, the “Selectivity index (SI), liver” value ([4]; 1 × 10^7 pfu) was 6.3 ± 5.4 and the “Selectivity index (SI), lung” value ([4]; 1 × 10^7 pfu) was 1.9 ± 0.8. For the same substance, the “Organ Specificity Index (SPI), ratio of SI brain to colon” value ([4]; 1 × 10^8 pfu) was 2.82, the “Organ Specificity Index (SPI), ratio of SI brain to kidney” value ([4]; 1 × 10^8 pfu) was 2.08 and the “Organ Specificity Index (SPI), ratio of SI brain to liver” value ([4]; 1 × 10^8 pfu) was 3.27. For the same substance, the “Organ Specificity Index (SPI), ratio of SI brain to lung” value ([4]; 1 × 10^8 pfu) was 0.65, the “Selectivity index (SI), brain” value ([4]; 1 × 10^8 pfu) was 10.5 and 10 and the “Selectivity index (SI), colon” value ([4]; 1 × 10^8 pfu) was 4.3 ± 1.8. The “Selectivity index (SI), kidney” value ([4]; 1 × 10^8 pfu) was 5.4 ± 1.3, the “Selectivity index (SI), liver” value ([4]; 1 × 10^8 pfu) was 4.2 ± 1.9 and the “Selectivity index (SI), lung” value ([4]; 1 × 10^8 pfu) was 14.3 ± 6.8. The “Organ Specificity Index (SPI), ratio of SI brain to colon” value ([4]; 1 × 10^9 pfu) was 8.87, the “Organ Specificity Index (SPI), ratio of SI brain to kidney” value ([4]; 1 × 10^9 pfu) was 3.27 and the “Organ Specificity Index (SPI), ratio of SI brain to liver” value ([4]; 1 × 10^9 pfu) was 26. For the same substance, the “Organ Specificity Index (SPI), ratio of SI brain to lung” value ([4]; 1 × 10^9 pfu) was 3.23, the “Selectivity index (SI), brain” value ([4]; 1 × 10^9 pfu) was 121 and the “Selectivity index (SI), colon” value ([4]; 1 × 10^9 pfu) was 18.3 ± 6.8. The “Selectivity index (SI), kidney” value ([4]; 1 × 10^9 pfu) was 47.3 ± 18.5, the “Selectivity index (SI), liver” value ([4]; 1 × 10^9 pfu) was 8.2 ± 3.1 and the “Selectivity index (SI), lung” value ([4]; 1 × 10^9 pfu) was 47.3 ± 12.5. The “Organ Specificity Index (SPI), ratio of SI brain to lung” value ([4]; 1 × 10^10 pfu) was 4.03, the “Selectivity index (SI), brain” value ([4]; 1 × 10^10 pfu) was 150 and the “Selectivity index (SI), colon” value ([4]; 1 × 10^10 pfu) was 7.9 ± 1.2. The “Selectivity index (SI), kidney” value ([4]; 1 × 10^10 pfu) was 20.7 ± 6.4, the “Selectivity index (SI), liver” value ([4]; 1 × 10^10 pfu) was 8.9 ± 5.1 and the “Selectivity index (SI), lung” value ([4]; 1 × 10^10 pfu) was 40.7 ± 9.2. The “Organ Specificity Index (SPI), ratio of SI brain to lung” value ([4]; 1 × 10^11 pfu) was 3.3, the “Selectivity index (SI), brain” value ([4]; 1 × 10^11 pfu) was 118 ± 47.3 and the “Selectivity index (SI), colon” value ([4]; 1 × 10^11 pfu) was 5.3 ± 1.6. The “Selectivity index (SI), kidney” value ([4]; 1 × 10^11 pfu) was 10.3 ± 1.7, the “Selectivity index (SI), liver” value ([4]; 1 × 10^11 pfu) was 4.2 ± 0.4 and the “Selectivity index (SI), lung” value ([4]; 1 × 10^11 pfu) was 35.3 ± 11.0. For the same substance, the “SPI values for lung, liver, kidney or colon compared to the other organs” value ([4]; all doses tested) was “lower than 10”, the “ratio of yield/g brain and yield/mL blood between T7-A3 and T7-lacZ phage” value ([5]; 2 hr) was 250 and the “Selectivity index (SI), brain” value ([5]; 2 hr, 1×10^10 pfu) was 51. For the same substance, the “Selectivity index (SI), lung” value ([5]; 2 hr, 1×10^10 pfu) was 16.0, the “selectivity index (SI), spleen” value ([5]; 2 hr, 1×10^10 pfu) was 1.98 and the “relative specificity for brain (SI brain compared to lung)” value ([5]; 4 hour time point) was 6 fold. The “ratio of yield/g brain and yield/mL blood between T7-A3 and T7-lacZ phage” value ([5]; 4 hr) was 1200, the “Selectivity index (SI), brain” value ([5]; 4 hr, 1×10^10 pfu) was 280 and 288 and the “Selectivity index (SI), liver” value ([5]; 4 hr, 1×10^10 pfu) was 4.62. The “Selectivity index (SI), lung” value ([5]; 4 hr, 1×10^10 pfu) was 54.8 and 47, the “selectivity index, brain” value ([5]; difference of half-lives in blood taken into account) was “over 100” and the “frequency of phage variant recovered from brain” value (brain [6]; 30 minutes after injection of 20-variant mixture) was 12%. The “frequency of phage variant recovered from brain” value (brain [6]; 4 hours after injection of 20-variant mixture) was 7.5%, the “Brain Targeting Activity” value (brain tissue; 0.5-1×10^10 pfu co-injected with T7-lacZ) was “Yes” and the “Selectivity index (BALB/C mice)” value (brain tissue; brain tissue, BALB/C mice) was 1000. The “Selectivity index (FVB female)” value (brain tissue; brain tissue, FVB female mice) was greater than 200.
